Measured values reported in US12545906B2, “Methods and compositions for selection of functional aptamers” (Aummune Ltd., priority 2018, dated 2026).

Columns and labels:
TNBC9 cells = test: induction of caspase-3/7 activation / target killing in TNBC9 cells; format: cell-based, human
Source text: (§1) The 10 most abundant aptamer sequences are highlighted. Panel B is a representative screening of the 10 most abundant aptamers from Panel A for significant caspase-3/7 activation in comparison to vehicle (V) and random oligonucleotide (R) in TNBC9 cells. Aptamer IDs labeled 1-10 (E1, E2, . . . . E10). […] STA, staurosporine; PAC, paclitaxel; Random, random oligonucleotide.
Functional enrichment of aptamers that mediate apoptosis of patient-derived xenograft (PDX)-derived triple negative breast cancer (TNBC) cells, termed TNBC9 (Example 8) was followed by selection of lead molecules. Based on sequencing analysis (FIG. 10, Panel A), the 10 most abundant sequences in the functionally enriched aptamer population were selected, synthesized, and folded.
The effectiveness of the selected candidate aptamers in target killing was measured on TNBC9 cells. Specifically, candidate aptamers were synthesized, folded, directly tested for induction of caspase-3/7 activation in TNBC9 cells.

MCF10A cells = test: selectivity of cell death induction, negative target cells; format: cell-based, human; details: selectivity at the target cell level
MDA-MB-231 cells = test: effect of E8 on MDA-MB-231 cells; format: cell-based
TNBC cells = test: effect of E8 on TNBC cells in mouse serum; format: cell-based
Source text: as §1
(See, e.g., Yamashita, M. et al. A novel method for evaluating antibody-dependent cell-mediated cytotoxicity by flow cytometry using cryopreserved human peripheral blood mononuclear cells. Sci. Rep. 6, 19772 (2016); Romano, E. et al. Ipilimumab-dependent cell-mediated cytotoxicity of regulatory T cells ex vivo by nonclassical monocytes in melanoma patients. Proc. Natl. Acad. Sci. U.S.A 112, 6140-6145 (2015); Kumar, R. et al. PD-1 blockade restores impaired function of ex vivo expanded CD8 T cells and enhances apoptosis in mismatch repair deficient EpCAMPD-L1 cancer cells. Onco. Targets. Ther. 10, 3453-3465 (2017), each of which is hereby incorporated by reference.).

red blood cells = test: incubation with red blood cells: agglutination and hemolysis; format: cell-based, human; details: varying concentrations of E8
Description: (§2) Varying concentrations of E8 aptamer candidate were incubated with red blood cells and, separately, with PBMCs from healthy donors to ensure E8 administration is applicable in a clinical setting. No effects of blood agglutination or red blood cell hemolysis were measured.

[1] = tested on: PBMCs from healthy donors; test: cytokine antibody array assay on PBMCs; format: cell-based, human; details: varying concentrations of E8
Description: as §2

[2] = tested on: MDA-MB-231-derived tumors; test: efficacy of E8 on tumor volume in tumor-bearing mice; format: in vivo, NOD/SCID mice
Source text: White arrows point to tumor locations. […] Inset region is shown magnified on the right, white arrowhead points to tumor site. […] Asterisks denote a statistically difference with p<0.05 (n=8 mice/group). […] Panel F-G show histochemical analysis of caspase-3 activity in tumor-derived tissue sections (Panel F, vehicle-treated; Panel G, E8-treated). Panel H-I show TUNEL analysis of tumor-derived tissue sections (H, vehicle-treated; I, E8-treated).
To evaluate the efficacy of E8 on tumor volume, the PEGylated aptamer was injected once every 2 days during the course of an 11-day period, at a dose of 100 mg/kg (equivalent in molar terms to standard chemotherapy).

[3] = tested on: tumor cells in EVOC samples from TNBC patients; test: human ex-vivo organ cultures (EVOC), graded pathological assessment; format: cell-based; details: 0-4 scale, 2 blinded pathologists; 20-50 μM, two doses, 5 days; EVOC from 2 patients
Description: Graded pathological assessment was made on a scale of 0-4 by two blinded pathologists. White stars denote samples in which an effect reached a grade of at least 3. Rnd, random.
The efficacy of aptamer E8 (described in Example 10) was evaluated in human ex-vivo organ cultures (EVOC). EVOCs were freshly derived from two representative TNBC patients and were prepared by Curesponse. 250 μm wide tissue slices were plated onto a 24 well plate in culture medium at high oxygen conditions. Cancer cells of the primary tumor were kept viable for up to 14 days.
The E8 aptamer and other chemotherapies (palbociclib, everolimus, fulvestrant) were administered at concentrations of 20-50 μM to the EVOCs. Following day 1, sample medium was replaced and a second dose of the same concentration of therapies were administered. After 5 days, samples were fixed with 4% w/v paraformaldehyde and histological sections were prepared and stained with hematoxylin-eosin. Effects were graded by 2 blinded pathologists on a 0-4 scale.

[4] = PEGylated aptamer, 100 mg/kg once every 2 days
[5] = following injection of E8 compared to the PBS control

CGGACTCACGCAAGAGCGTTTGGCAGTGTAAAACTGTTTAACGTATCTGCTCGC (chemistry not given here) [Aptamer E8]
induction of apoptosis (caspase-3/7 activation) (TNBC9 cells; compared to vehicle alone or random oligonucleotides): most effective of the selected aptamers at inducing apoptosis | level of direct target killing (TNBC9 cells; in-vitro and ex-vivo, independent biological replicate experiments): 20-40% | cell killing, target cells (TNBC9 cells; selectivity at the target cell level): killing TNBC9 | cell killing, negative target cells (MCF10A cells): but not MCF10A cells | effect on MDA-MB-231 cells (MDA-MB-231 cells): remarkable effect | function in mouse serum (TNBC cells): retained function in mouse serum | blood agglutination (red blood cells): No effects | red blood cell hemolysis (red blood cells): No effects | cytokine release [1]: Only minor release of certain cytokines | TUNEL analysis (apoptotic DNA fragmentation) of tumor-derived tissue sections [2, 4]: increase in cell death | histochemical analysis of caspase-3 activity in tumor-derived tissue sections [2, 4]: significant staining | tumor volume change compared to vehicle-treated animals ([2]; PEGylated aptamer, 100 mg/kg once every 2 days over 11 days): decreased significantly | final tumor volume on day 11 ([2]; PEGylated aptamer, 100 mg/kg once every 2 days over 11 days, vehicle 301±51): 168±39 mm^3 | macroscopic appearance of extracted tumors ([2]; PEGylated aptamer, 100 mg/kg once every 2 days, tumors excised day 11): macroscopic signs of tissue death | body weight [2, 5]: No significant changes | physical appearance [2, 5]: No significant changes | pathological grade of effect on tumor cells [3]: 3-4
